Measured values reported in US11053204B2, “Pyrimidinyloxy benzene derivatives as herbicides” (FMC Corporation, priority 2015, dated 2021).

Assays:
Format in all cases: in vivo
[1] = test system: ducksalad (Heteranthera limosa); experiment: Test B flooded paddy test, plant response rating; conditions: 250 g ai/ha; Flood; scale of 0 to 100 where 0 is no effect and 100 is complete control; 13 to 15 days
Outline: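 Pots were flooded to 3 cm above the soil surface at treatment, compound applied directly to the paddy water, and that depth held throughout. Plants were kept in a greenhouse for 13 to 15 days, then visually rated against untreated controls.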

[2] = test system: ragweed (common ragweed, Ambrosia elatior); experiment: Test A preemergence, visual injury rating; conditions: 0 to 100 scale (0 no effect, 100 complete control)
Outline: (§1)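 Injury scores run from 0, no effect, to 100, complete control, judged by eye against untreated plants roughly 10 days after treatment. Chemicals carried a surfactant in a non-phytotoxic solvent and went onto loam–sand soil preemergence or onto one- to two-leaf seedlings postemergence.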

[3] = test system: giant foxtail (Setaria faberii); experiment: Test A preemergence, visual injury rating; conditions: 0 to 100 scale (0 no effect, 100 complete control)
Outline: as §1

[4] = test system: barnyardgrass (Echinochloa crus-galli); experiment: Test A preemergence, visual injury rating; conditions: 0 to 100 scale (0 no effect, 100 complete control)
Outline: as §1

[5] = test system: Italian ryegrass (Lolium multiflorum); experiment: Test A preemergence, visual injury rating; conditions: 0 to 100 scale (0 no effect, 100 complete control)
Outline: as §1

[6] = test system: pigweed (Amaranthus retroflexus); experiment: Test A preemergence, visual injury rating; conditions: 0 to 100 scale (0 no effect, 100 complete control)
Outline: as §1

kochia (Kochia scoparia) [7] = experiment: Test A preemergence, visual injury rating; conditions: 0 to 100 scale (0 no effect, 100 complete control)
Outline: as §1

[8] = test system: velvetleaf (Abutilon theophrasti); experiment: Test C postemergence, plant response rating; conditions: for Plant response rating, Velvetleaf: scale 0 to 100; for Velvetleaf plant response rating: scale 0 to 100 (0 no effect, 100 complete control)
Outline: (§2)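 Visual injury score, 0 = no effect, 100 = complete control, assigned against untreated controls after 13 to 15 d in the greenhouse. Compounds were applied in a surfactant-containing non-phytotoxic solvent mix, preemergence to seeded loam/sand or silt loam soil, or postemergence to 1- to 4-leaf plants (2 to 18 cm).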

corn (Zea mays) = experiment: Test C postemergence, plant response rating; conditions: for Plant response rating, Corn: scale 0 to 100; for Corn plant response rating: scale 0 to 100 (0 no effect, 100 complete control)
Outline: as §2

[9] = test system: crabgrass, large (large crabgrass, Digitaria sanguinalis); experiment: Test C postemergence, plant response rating; conditions: for Plant response rating, Crabgrass, Large: scale 0 to 100; for Crabgrass, Large plant response rating: scale 0 to 100 (0 no effect, 100 complete control)
Outline: as §2

[10] = test system: lambsquarters (Chenopodium album); experiment: Test C postemergence, plant response rating; conditions: for Plant response rating, Lambsquarters: scale 0 to 100; for Lambsquarters plant response rating: scale 0 to 100 (0 no effect, 100 complete control)
Outline: as §2

[11] = test system: ragweed (common ragweed, Ambrosia elatior); experiment: Test C postemergence, plant response rating; conditions: for Plant response rating, Ragweed: scale 0 to 100; for Ragweed plant response rating: scale 0 to 100 (0 no effect, 100 complete control)
Outline: as §2

[12] = test system: oat, wild (wild oat Avena fatua); experiment: Test C postemergence, plant response rating; conditions: for Plant response rating, Oat, Wild: scale 0 to 100; for Oat, Wild plant response rating: scale 0 to 100 (0 no effect, 100 complete control)
Outline: as §2

[13] = test system: barnyardgrass (Echinochloa crus-galli); experiment: Test C postemergence, plant response rating; conditions: for Plant response rating, Barnyardgrass: scale 0 to 100; for Barnyardgrass plant response rating: scale 0 to 100 (0 no effect, 100 complete control)
Outline: as §2

[14] = test system: nutsedge, yellow (yellow nutsedge, Cyperus esculentus); experiment: Test C postemergence, plant response rating; conditions: for Plant response rating, Nutsedge, Yellow: scale 0 to 100; for Nutsedge, Yellow plant response rating: scale 0 to 100 (0 no effect, 100 complete control)
Outline: as §2

kochia (Kochia scoparia) [15] = experiment: Test C postemergence, plant response rating; conditions: for Plant response rating, Kochia: scale 0 to 100; for Kochia plant response rating: scale 0 to 100 (0 no effect, 100 complete control)
Outline: as §2

[16] = test system: morningglory (Ipomoea coccinea); experiment: Test C postemergence, plant response rating; conditions: for Plant response rating, Morningglory: scale 0 to 100; for Morningglory plant response rating: scale 0 to 100 (0 no effect, 100 complete control)
Outline: as §2

SMILES: O=C(OCCC(F)(F)F)c1c(Br)cccc1Oc1ncc(Br)cn1 [Compound 33]
- Plant response rating, Ducksalad [1]: 80
- Ragweed plant response rating ([2]; 125 g ai/ha): 0
- Ragweed plant response rating ([2]; 500 g ai/ha): 20
- Foxtail, Giant plant response rating ([3]; 125 g ai/ha): 100
- Foxtail, Giant plant response rating ([3]; 500 g ai/ha): 100
- Barnyardgrass plant response rating ([4]; 125 g ai/ha): 100
- Barnyardgrass plant response rating ([4]; 500 g ai/ha): 100
- Ryegrass, Italian plant response rating ([5]; 125 g ai/ha): 40
- Ryegrass, Italian plant response rating ([5]; 500 g ai/ha): 100
- Pigweed plant response rating ([6]; 125 g ai/ha): 100
- Pigweed plant response rating ([6]; 500 g ai/ha): 100
- Kochia plant response rating (kochia (Kochia scoparia) [7]; 125 g ai/ha): 60
- Kochia plant response rating (kochia (Kochia scoparia) [7]; 500 g ai/ha): 100
- Plant response rating, Velvetleaf ([8]; 16 g ai/ha): 25
- Plant response rating, Velvetleaf ([8]; 31 g ai/ha): 50
- Velvetleaf plant response rating ([8]; 62 g ai/ha): 65
- Velvetleaf plant response rating ([8]; 125 g ai/ha): 75
- Plant response rating, Corn (corn (Zea mays); 16 g ai/ha): 20
- Plant response rating, Corn (corn (Zea mays); 31 g ai/ha): 25
- Corn plant response rating (corn (Zea mays); 62 g ai/ha): 25
- Corn plant response rating (corn (Zea mays); 125 g ai/ha): 30
- Plant response rating, Crabgrass, Large ([9]; 16 g ai/ha): 5
- Plant response rating, Crabgrass, Large ([9]; 31 g ai/ha): 5
- Crabgrass, Large plant response rating ([9]; 62 g ai/ha): 10
- Crabgrass, Large plant response rating ([9]; 125 g ai/ha): 15
- Plant response rating, Lambsquarters ([10]; 16 g ai/ha): 60
- Plant response rating, Lambsquarters ([10]; 31 g ai/ha): 70
- Lambsquarters plant response rating ([10]; 62 g ai/ha): 80
- Lambsquarters plant response rating ([10]; 125 g ai/ha): 90
- Plant response rating, Ragweed ([11]; 16 g ai/ha): 40
- Plant response rating, Ragweed ([11]; 31 g ai/ha): 30
- Ragweed plant response rating ([11]; 62 g ai/ha): 50
- Ragweed plant response rating ([11]; 125 g ai/ha): 60
- Plant response rating, Oat, Wild ([12]; 16 g ai/ha): 5
- Plant response rating, Oat, Wild ([12]; 31 g ai/ha): 10
- Oat, Wild plant response rating ([12]; 62 g ai/ha): 25
- Oat, Wild plant response rating ([12]; 125 g ai/ha): 30
- Plant response rating, Barnyardgrass ([13]; 16 g ai/ha): 5
- Plant response rating, Barnyardgrass ([13]; 31 g ai/ha): 5
- Barnyardgrass plant response rating ([13]; 62 g ai/ha): 10
- Barnyardgrass plant response rating ([13]; 125 g ai/ha): 25
- Plant response rating, Nutsedge, Yellow ([14]; 16 g ai/ha): 5
- Plant response rating, Nutsedge, Yellow ([14]; 31 g ai/ha): 5
- Nutsedge, Yellow plant response rating ([14]; 62 g ai/ha): 5
- Nutsedge, Yellow plant response rating ([14]; 125 g ai/ha): 10
- Plant response rating, Kochia (kochia (Kochia scoparia) [15]; 16 g ai/ha): 90
- Plant response rating, Kochia (kochia (Kochia scoparia) [15]; 31 g ai/ha): 95
- Kochia plant response rating (kochia (Kochia scoparia) [15]; 62 g ai/ha): 95
- Kochia plant response rating (kochia (Kochia scoparia) [15]; 125 g ai/ha): 95
- Plant response rating, Morningglory ([16]; 16 g ai/ha): 55
- Plant response rating, Morningglory ([16]; 31 g ai/ha): 65
- Morningglory plant response rating ([16]; 62 g ai/ha): 75
- Morningglory plant response rating ([16]; 125 g ai/ha): 65
